Test system: Panel, parental and outbred (CD-IGS) rat strains
Assay: Clinical chemistry endpoints of gentamicin-treated vs. vehicle rats
Conditions: for T-test value ALB / T-test value ALP / T-test value ALT / T-test value ANION GAP / T-test value AST / T-test value BICARB / T-test value BUN / T-test value CA / T-test value CHOL / T-test value CREAT / T-test value GGT / T-test value GLOB / T-test value GLU / T-test value K / T-test value NA / T-test value PHOS / T-test value TBIL / T-test value TP / T-test value TRIG: 240 mg/Kg gentamicin vs. vehicle
From the text: Percent increase is defined as[(mean drug—mean vehicle control)/mean vehicle control×100] for each strain tested. The number of animals tested in each group is noted below the strain designation in parenthesis as #drug treated animals per #vehicle treated animals.
We sought to maximize the range of genetic susceptibility to the adverse drug effects across the strains.

[1] = Panel (all 6 hybrid strains together)
[2] = Parental Group (all 4 parents combined)

## gentamicin
120 mg/kg gentamicin, all strains (not shown)
  nephrotoxic phenotypes at the first dose: did not produce a robust set of phenotypes, except in LEW rats
BN rats
  T-test value ALB: 0.028
  T-test value ALP: 0.040
  T-test value ALT: 0.618
  T-test value ANION GAP: 0.369
  T-test value AST: 0.110
  T-test value BICARB: 0.642
  T-test value BUN: 0.003
  T-test value CA: 0.460
  T-test value CHOL: 0.092
  T-test value CREAT: 0.005
  T-test value GGT: 0.121
  T-test value GLOB: 0.517
  T-test value GLU: 0.937
  T-test value K: 0.264
  T-test value NA: 0.036
  T-test value PHOS: 0.021
  T-test value TBIL: 0.040
  T-test value TP: 0.133
  T-test value TRIG: 0.042
BNxF344 rats
  T-test value ALB: 0.089
  T-test value ALP: 0.000
  T-test value ALT: 0.171
  T-test value ANION GAP: 0.770
  T-test value AST: 0.005
  T-test value BICARB: 0.765
  T-test value BUN: 0.000
  T-test value CA: 0.397
  T-test value CHOL: 0.216
  T-test value CREAT: 0.000
  T-test value GLOB: 0.165
  T-test value GLU: 0.434
  T-test value K: 0.899
  T-test value NA: 0.128
  T-test value PHOS: 0.657
  T-test value TBIL: 0.745
  T-test value TP: 0.802
  T-test value TRIG: 0.000
CD-IGS rats
  T-test value ALB: 0.493
  T-test value ALP: 0.312
  T-test value ALT: 0.714
  T-test value ANION GAP: 0.222
  T-test value AST: 0.740
  T-test value BICARB: 0.030
  T-test value BUN: 0.013
  T-test value CA: 0.078
  T-test value CHOL: 0.742
  T-test value CREAT: 0.024
  T-test value GGT: 0.331
  T-test value GLOB: 0.252
  T-test value GLU: 0.104
  T-test value K: 0.229
  T-test value NA: 0.138
  T-test value PHOS: 0.620
  T-test value TBIL: 0.720
  T-test value TP: 0.807
  T-test value TRIG: 0.946
F344 rats
  T-test value ALB: 0.002
  T-test value ALP: 0.017
  T-test value ALT: 0.108
  T-test value ANION GAP: 0.428
  T-test value AST: 0.304
  T-test value BICARB: 0.080
  T-test value BUN: 0.015
  T-test value CA: 0.637
  T-test value CHOL: 0.811
  T-test value CREAT: 0.006
  T-test value GGT: 0.363
  T-test value GLOB: 0.170
  T-test value GLU: 0.169
  T-test value K: 0.287
  T-test value NA: 0.020
  T-test value PHOS: 0.350
  T-test value TBIL: 0.969
  T-test value TP: 0.000
  T-test value TRIG: 0.052
LEW rats
  T-test value ALB: 0.015
  T-test value ALP: 0.419
  T-test value ALT: 0.080
  T-test value ANION GAP: 0.283
  T-test value AST: 0.754
  T-test value BICARB: 0.061
  T-test value BUN: 0.002
  T-test value CA: 0.000
  T-test value CHOL: 0.007
  T-test value CREAT: 0.006
  T-test value GLOB: 0.167
  T-test value GLU: 0.318
  T-test value K: 0.349
  T-test value NA: 0.361
  T-test value PHOS: 0.203
  T-test value TBIL: 0.648
  T-test value TP: 0.102
  T-test value TRIG: 0.405
LEWxBN rats
  T-test value ALB: 0.081
  T-test value ALP: 0.005
  T-test value ALT: 0.293
  T-test value ANION GAP: 0.071
  T-test value AST: 0.417
  T-test value BICARB: 0.076
  T-test value BUN: 0.001
  T-test value CA: 0.000
  T-test value CHOL: 0.533
  T-test value CREAT: 0.002
  T-test value GLOB: 0.419
  T-test value GLU: 0.016
  T-test value K: 0.145
  T-test value NA: 0.955
  T-test value PHOS: 0.431
  T-test value TBIL: 0.060
  T-test value TP: 0.434
  T-test value TRIG: 0.037
LEWxF344 rats
  T-test value ALB: 0.071
  T-test value ALP: 0.144
  T-test value ALT: 0.380
  T-test value ANION GAP: 0.157
  T-test value AST: 0.375
  T-test value BICARB: 0.114
  T-test value BUN: 0.019
  T-test value CA: 0.777
  T-test value CHOL: 0.889
  T-test value CREAT: 0.014
  T-test value GGT: 0.351
  T-test value GLOB: 0.080
  T-test value GLU: 0.455
  T-test value K: 0.216
  T-test value NA: 0.227
  T-test value PHOS: 0.652
  T-test value TBIL: 0.560
  T-test value TP: 1.000
  T-test value TRIG: 0.129
LEW×F344, BN, F344, LEW and LEW×Bn strains, gentamicin treated
  increase in BUN: 2-3 fold
[1]
  T-test value ALB: 0.000
  T-test value ALP: 0.300
  T-test value ALT: 0.440
  T-test value ANION GAP: 0.802
  T-test value AST: 0.026
  T-test value BICARB: 0.204
  T-test value BUN: 0.000
  T-test value CA: 0.004
  T-test value CHOL: 0.404
  T-test value CREAT: 0.000
  T-test value GGT: 0.078
  T-test value GLOB: 0.024
  T-test value GLU: 0.497
  T-test value K: 0.032
  T-test value NA: 0.064
  T-test value PHOS: 0.091
  T-test value TBIL: 0.244
  T-test value TP: 0.036
  T-test value TRIG: 0.000
[2]
  T-test value ALB: 0.000
  T-test value ALP: 0.037
  T-test value ALT: 0.047
  T-test value ANION GAP: 0.046
  T-test value AST: 0.040
  T-test value BICARB: 0.068
  T-test value BUN: 0.000
  T-test value CA: 0.018
  T-test value CHOL: 0.327
  T-test value CREAT: 0.000
  T-test value GGT: 0.083
  T-test value GLOB: 0.638
  T-test value GLU: 0.244
  T-test value K: 0.486
  T-test value NA: 0.000
  T-test value PHOS: 0.016
  T-test value TBIL: 0.141
  T-test value TP: 0.002
  T-test value TRIG: 0.000
WKY rats
  T-test value ALB: 0.034
  T-test value ALP: 0.003
  T-test value ALT: 0.346
  T-test value ANION GAP: 0.137
  T-test value AST: 0.244
  T-test value BICARB: 0.229
  T-test value BUN: 0.264
  T-test value CA: 0.969
  T-test value CHOL: 0.232
  T-test value CREAT: 0.156
  T-test value GLOB: 0.358
  T-test value GLU: 0.742
  T-test value K: 0.881
  T-test value NA: 0.134
  T-test value PHOS: 0.014
  T-test value TBIL: 0.052
  T-test value TP: 0.254
  T-test value TRIG: 0.010
WKYxBN rats
  T-test value ALB: 0.080
  T-test value ALP: 0.008
  T-test value ALT: 0.172
  T-test value ANION GAP: 0.887
  T-test value AST: 0.575
  T-test value BICARB: 0.923
  T-test value BUN: 0.016
  T-test value CA: 0.175
  T-test value CHOL: 0.610
  T-test value CREAT: 0.026
  T-test value GGT: 0.189
  T-test value GLOB: 0.361
  T-test value GLU: 1.000
  T-test value K: 0.114
  T-test value NA: 0.401
  T-test value PHOS: 0.118
  T-test value TBIL: 0.020
  T-test value TP: 0.070
  T-test value TRIG: 0.032
WKYxF344 rats
  T-test value ALB: 0.002
  T-test value ALP: 0.000
  T-test value ALT: 0.530
  T-test value ANION GAP: 0.434
  T-test value AST: 0.596
  T-test value BICARB: 0.318
  T-test value BUN: 0.005
  T-test value CA: 0.135
  T-test value CHOL: 0.867
  T-test value CREAT: 0.043
  T-test value GLOB: 0.104
  T-test value GLU: 0.375
  T-test value K: 0.270
  T-test value NA: 0.128
  T-test value PHOS: 0.010
  T-test value TBIL: 0.002
  T-test value TP: 0.125
  T-test value TRIG: 0.007
WKYxLEW rats
  T-test value ALB: 0.001
  T-test value ALP: 0.001
  T-test value ALT: 0.584
  T-test value ANION GAP: 0.429
  T-test value AST: 0.677
  T-test value BICARB: 0.085
  T-test value BUN: 0.000
  T-test value CA: 0.092
  T-test value CHOL: 0.608
  T-test value CREAT: 0.000
  T-test value GLOB: 0.365
  T-test value GLU: 0.001
  T-test value K: 0.689
  T-test value NA: 0.514
  T-test value PHOS: 0.123
  T-test value TBIL: 0.685
  T-test value TP: 0.000
  T-test value TRIG: 0.015

From US20030237103A1, “Methods and compositions for pharmacological and toxicological evaluation of test agents” (priority 2002, published 2003)
